Results from ChEMBL document CHEMBL5236657, “Synthesis and pharmacological validation of a novel radioligand for the orphan GPR88 receptor” (Bioorg Med Chem Lett, 2023).

Legend:
[1] = molecular target: T1, G protein-coupled receptor 88 (Homo sapiens, UniProt Q9GZN0)
Description: Displacement of [3H]RTI-33 from GPR88 (unknown origin) by competition binding assay

[2] = molecular target: T1, G protein-coupled receptor 88; remark: listed apart in the source
Description: Agonist activity at GPR88 (unknown origin) transfected in HEK293 cells assessed as cAMP level by GloSensor cAMP assay

T1 sequence (Q9GZN0 whole entry): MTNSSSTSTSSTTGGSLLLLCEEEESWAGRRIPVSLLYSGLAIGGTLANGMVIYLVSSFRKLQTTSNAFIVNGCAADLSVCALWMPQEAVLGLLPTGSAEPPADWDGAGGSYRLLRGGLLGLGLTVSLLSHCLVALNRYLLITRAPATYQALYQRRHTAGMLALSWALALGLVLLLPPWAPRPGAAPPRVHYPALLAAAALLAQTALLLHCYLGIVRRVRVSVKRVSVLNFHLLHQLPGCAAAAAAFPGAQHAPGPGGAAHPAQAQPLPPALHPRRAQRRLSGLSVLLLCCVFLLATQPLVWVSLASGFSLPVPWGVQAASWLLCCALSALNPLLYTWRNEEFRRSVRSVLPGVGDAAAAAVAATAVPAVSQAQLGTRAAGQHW

## CCCC(C)COc1ccc([C@H](CN)NC(=O)[C@@H](C)c2ccccc2)cc1 (some centres not stated)
[1]
  Ki: 219 nM
[2]
  EC50: 304 nM
